Assay results published in US5147604A, “Dioxo-aromatic compounds as oxygen scavengers” (Betz Laboratories, Inc., priority 1988, dated 1992).

How the values were obtained:
[1] = Oxygen scavenging efficacy at elevated temperature and pressure in hot water flow system (Example 1, TABLE 1); details: for oxygen scavenging (in words): test water, TABLE 1; for % O2 Removed: 78°±3°C, 4±1 psig, contact 4±0.2 min, feedwater concentration, pH and initial O2 (ppm) vary by line of TABLE 1, values below 20% may be experimental artifacts
Experimental: In a first series of tests, the oxygen scavenging efficacies of various materials were evaluated under conditions of elevated temperature and pressure. The test apparatus used was essentially a stainless steel hot water flow system equipped with appropriate monitoring instrumentation. Demineralized feedwater, adjusted to the appropriate pH and initial dissolved oxygen level (controlled by nitrogen sparging), was pumped from a reservoir at ambient temperature into a once-through heater. Temperature was monitored continuously by means of thermocouples at several locations along the length of the flow tubing. A solution containing the oxygen scavenger test material was loaded into a pump driven syringe and fed continuously to the heated flow stream through a port containing a stainless steel ribbon mixing baffle. The feedwater containing dissolved oxygen and the test material then traversed the flow tubing via a by-pass comprising an additional length of coiled tubing. Contact (or reaction) time of the test material and dissolved oxygen was governed by the choice of coil length. The tendency of the temperature to drop during residence in the coiled tubing was offset by the use of thermostatted heating tapes which maintained the temperature in this tubing at 78°±3°C. Upon exiting the coiled tubing, the stream flowed through a sample cooler to render the temperature of the liquid compatible with the operating range of a membrane-type dissolved oxygen probe. The cooled liquid was analyzed for dissolved oxygen via a D.O. flow cell, and pH was potentiometrically monitored in the flow tube immediately downstream of the D.O. probe. Outputs of the temperature, pH and dissolved oxygen probes during operation were monitored via strip chart recorders. The final destination of the reaction mixture was a reservoir which could be drained for analysis of reaction products, if desired.
Temperature in the system could be maintained at 78°±3° C. under 4±1 psig. Residence time of the feedwater in the flow tube from chemical feed point to D.O. flow cell outlet was 4±0.2 minutes. […] Entry into and residence in the sample cooler accounted for 0.5 minute of the total contact time. […]
The test solutions were prepared by initially mixing 10 grams of test material and 90 grams of demineralized water in glass bottles and allowing the mixture to remain in a shaker for several hours. If complete dissolution for a given material was observed after shaking, the pH of the solution was measured. When the pH of the solution was below 10.0, 7N sodium hydroxide was added dropwise until this value was reached. The quantity of added sodium hydroxide was recorded and later used in corrections for the active concentration of the solution. When the pH value of a stock solution was above pH 10.0 without requiring the addition of caustic, the solution was not further modified.
Results of these tests are reported in TABLE 1 below in terms of percent oxygen removed from the test stream. The precision of the initial and final dissolved oxygen values reported is approximately ±10%. […] The experimental uncertainties decrease with increasing values of percent dissolved oxygen removal.

[2] = Low (room) temperature reactivity with oxygen (Example 4, TABLE 5); details: mole ratio of treatment to O2 and initial O2 by line of TABLE 5; for % O2 Removed, 1 Minute: room temperature 22.5-26.5 °C, pH 8.6-10.0; for % O2 Removed, 5 Minutes: room temperature 24.0-26.5 °C, pH 9.1-10.0
Description: In a further series of tests, the low (room) temperature reactivities with oxygen of various dioxo compounds were compared to that of hydrazine. The test apparatus basically consisted of a 1 liter three-necked flask fitted with a dissolved oxygen probe and a pH electrode. The intent of this apparatus was to show reaction kinetics differences rather than precise measurements (within seconds) of reaction times.
The flask was filled with deionized water which had been stripped of some dissolved oxygen by bubbling nitrogen through a diffuser stone. The pH was adjusted to the desired level with sodium hydroxide. The flask was sealed with a rubber septum, the dissolved oxygen probe and an inlet stopper. A magnetic stirrer bar was left in the flask for mixing. The mixer was turned on, and dissolved oxygen and temperature readings were recorded until the dissolved oxygen reached a constant value. Next, the appropriate quantity of additive was injected through the septum using a hypodermic syringe. The initial mole ratio of treatment to dissolved oxygen was determined by weighing feed chemical and measuring the oxygen concentration. […] Dissolved oxygen and temperature readings were then taken at appropriate time intervals.
The results of these tests are provided below in TABLE 5 in terms of relative amounts of % oxygen removed at the time intervals indicated (1 and 5 minutes).

test rats = details: NIOSH Registry of Toxic Effects of Chemical Substances (1976); cited from earlier work
[3] = Oxygen scavenging in feedwater of a working boiler, field-type conditions (Example 2, TABLES 2 and 3); details: TABLE 2, actives 1.0-2.2 ppm, pH 8.7-9.4, steam load 11 or 15 (1000 lbs./hr.), initial O2 3.8-8 ppb by line
[4] = to nitrogen, hydrogen and ammonia; cited from earlier work
[5] = Thermal decomposition studies of aqueous solutions in autoclaves (Example 5, TABLE 6); details: hydrazine 60 ppm, 4 hours

Nc1ccc(N)cc1 [p-phenylenediamine]
oxygen scavenging (in words) [1]: ineffective

Oc1ccc(-c2ccccc2)cc1 [p-phenylphenol]
% O2 Removed [1]: 40%

Oc1ccccc1O [catechol]
% O2 Removed [1]: 96%
% O2 Removed, 1 Minute [2]: 7%
% O2 Removed, 5 Minutes [2]: 30%
LD50 Oral Rat (test rats): 3890 mg/kg
% O2 Removed [3]: 75%

O=Cc1ccc(O)c(O)c1 [3,4-dihydroxybenzaldehyde]
% O2 Removed [1]: 73 ± 2%

O=Cc1ccc(O)cc1O [2,4-dihydroxybenzaldehyde]
% O2 Removed [1]: 14%
oxygen scavenging (in words) [1]: ineffective

Cc1ccccc1O [o-cresol]
% O2 Removed [1]: 17%

O=C(O)c1ccc(O)cc1 [p-hydroxybenzoic acid]
% O2 Removed [1]: 13%

O=[N+]([O-])c1ccccc1O [2-nitrophenol]
% O2 Removed [1]: 0%

COc1ccc(O)cc1 [p-methoxyphenol]
% O2 Removed [1]: 40%

O=C1C=CC(=O)C=C1 [benzoquinone]
% O2 Removed [1]: 96%
oxygen scavenging (in words) [1]: quite efficacious as an oxygen scavenger
% O2 Removed, 1 Minute [2]: 76%
% O2 Removed, 5 Minutes [2]: 90%
% O2 Removed [3]: 57%

O=Cc1cc(O)ccc1O [2,5-dihydroxybenzaldehyde]
% O2 Removed [1]: 98%

CC(C)(C)c1ccc(O)c(O)c1 [4-tert-butylcatechol]
% O2 Removed [1]: 97%
LD50 Oral Rat (test rats): 2820 mg/kg
% O2 Removed [3]: 37%

Oc1ccc(O)cc1 [hydroquinone]
LD50 Oral Rat (test rats): 320 mg/kg

Nc1ccccc1N [o-phenylenediamine]
oxygen scavenging (in words) [1]: ineffective

Oc1cccc(O)c1 [resorcinol]
oxygen scavenging (in words) [1]: ineffective

O=C1C=CC(=O)c2ccccc21 [1,4-naphthoquinone]
% O2 Removed [1]: 99%
% O2 Removed [3]: 88%

NN [hydrazine]
temperature above which it decomposes [4]: Above 400 ° F.
LD50 Oral Rat (test rats): 60 mg/kg
% Decomposition ([5]; 0 psig, 70 °F.): 0%
% Decomposition ([5]; 1100 psig, 550 °F.): 52%
% Decomposition ([5]; 1620 psig, 600 °F.): 79%
% Decomposition ([5]; 2000 psig, 636 °F.): 93%
